Data as given in patent US20230234943A1, “TREX1 INHIBITORS AND USES THEREOF” (Tempest Therapeutics, Inc., priority 2020, published 2023).

Biological target: T1, Human TREX1 enzyme (amino acids 1-242) (Homo sapiens, UniProt Q9NSU2)
T1 construct: Human TREX1 enzyme (amino acids 1-242)
T1 sequence (Q9NSU2 1-242): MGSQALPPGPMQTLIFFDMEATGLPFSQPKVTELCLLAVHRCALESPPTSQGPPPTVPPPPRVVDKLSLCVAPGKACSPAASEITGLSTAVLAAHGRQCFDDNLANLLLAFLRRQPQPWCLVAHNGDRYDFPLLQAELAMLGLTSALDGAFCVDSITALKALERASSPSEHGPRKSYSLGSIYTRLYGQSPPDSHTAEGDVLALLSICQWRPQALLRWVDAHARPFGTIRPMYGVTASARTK
Experiment: Human TREX1 enzymatic assay with dsDNA native oligonucleotide (Picogreen fluorescence)
Format: biochemical
Conditions: 2 mM dithiothreitol in assay buffer; 50 nM dsDNA oligonucleotide; 30 min preincubation at 25° C.; read-out: TREX1/Human + DTT IC50 AVG
Outline: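 Remaining dsDNA quantified by Picogreen fluorescence after EDTA quench, with no-enzyme and DMSO wells as controls. Reactions used 50 nM annealed oligonucleotide for 5–15 min at 25 °C, after a 30 min compound–enzyme preincubation (0.8–0.16 nM TREX1; 2% DMSO; pH 7.7 Tris, 5 mM MgCl2).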

Row | IC50 [nM] | SMILES
1 | 100 to 1000 | COc1cc(-c2nc3ccc(C(=O)NC4CCN(C)CC4)cc3n2C2(C)COC2)c(F)c(O)c1O [Example 260, 2-(2-fluoro-3,4-dihydroxy-5-methoxyphenyl)-1-(3-methyloxetan-3-yl)-N-(1-methylpiperidin-4-yl)-1H-1,3-benzodiazole-6-carboxamide]
2 | 100 to 1000 | COc1cc(-c2nc3ccc(C(=O)NC4CCNC4)cc3n2C2(C)COC2)c(F)c(O)c1O (stereo not drawn) [Example 261, 2-(2-fluoro-3,4-dihydroxy-5-methoxyphenyl)-1-(3-methyloxetan-3-yl)-N-(pyrrolidin-3-yl)-1H-benzo[d]imidazole-6-carboxamide]
3 | ≤ 100 | CCNC(=O)c1ccc2nc(-c3cc(OC)c(O)c(O)c3F)n(C3(C)COC3)c2c1 [Example 262, N-ethyl-2-(2-fluoro-3,4-dihydroxy-5-methoxyphenyl)-1-(3-methyloxetan-3-yl)-1H-benzo[d]imidazole-6-carboxamide]
4 | ≤ 100 | COc1cc(-c2nc3ccc(C(=O)NCC4(F)CC4)cc3n2C2(C)COC2)c(F)c(O)c1O [Example 263, 2-(2-fluoro-3,4-dihydroxy-5-methoxyphenyl)-N-[(1-fluorocyclopropyl)methyl]-1-(3-methyloxetan-3-yl)-1H-1,3-benzodiazole-6-carboxamide.]
5 | ≤ 100 | CCNC(=O)c1ccc2nc(-c3cc(OC)c(O)c(O)c3F)n(C34CC(C3)C4)c2c1 [Example 264, 1-(bicyclo[1.1.1]pentan-1-yl)-N-ethyl-2-(2-fluoro-3,4-dihydroxy-5-methoxyphenyl)-1H-benzo[d]imidazole-6-carboxamide]
6 | ≤ 100 | COc1cc(-c2nc3ccc(-c4cnn(C)c4)cc3n2C2(C)COC2)c(F)c(O)c1O [Example 265, 3-fluoro-6-methoxy-4-(6-(1-methyl-1H-pyrazol-4-yl)-1-(3-methyloxetan-3-yl)-1H-benzo[d]imidazol-2-yl)benzene-1,2-diol]
7 | 1000 to 10000 | COc1cc(-c2nc3ccc(-c4ccnn4C)cc3n2C2(C)COC2)c(F)c(O)c1O [Example 266, 3-fluoro-6-methoxy-4-(6-(1-methyl-1H-pyrazol-5-yl)-1-(3-methyloxetan-3-yl)-1H-benzo[d]imidazol-2-yl)benzene-1,2-diol]
8 | ≤ 100 | COc1cc(-c2nc3ccc(-c4ncccn4)cc3n2C2(C)COC2)c(F)c(O)c1O [Example 267, 3-fluoro-6-methoxy-4-(1-(3-methyloxetan-3-yl)-6-(pyrimidin-2-yl)-1H-benzo[d]imidazol-2-yl)benzene-1,2-diol]
9 | > 100000 | COc1cc(-c2nc3cc(C4CCC4)ccc3[nH]2)cc(O)c1O [Example 268, 5-(5-cyclobutyl-1H-benzo[d]imidazol-2-yl)-3-methoxybenzene-1,2-diol]
10 | ≤ 100 | COc1cc(-c2nc3ccc(-c4ccc(F)cn4)cc3n2C2(C)COC2)c(F)c(O)c1O [Example 269, 3-fluoro-4-(6-(5-fluoropyridin-2-yl)-1-(3-methyloxetan-3-yl)-1H-benzo[d]imidazol-2-yl)-6-methoxybenzene-1,2-diol]
11 | ≤ 100 | COc1cc(-c2nc3ccc(-c4ncc(F)cn4)cc3n2C2(C)COC2)c(F)c(O)c1O [Example 270, 3-fluoro-4-(6-(5-fluoropyrimidin-2-yl)-1-(3-methyloxetan-3-yl)-1H-benzo[d]imidazol-2-yl)-6-methoxybenzene-1,2-diol]
12 | ≤ 100 | COc1cc(-c2nc3cc(N4CCOC4=O)ccc3n2C2(C)COC2)c(F)c(O)c1O [Example 271, 3-(2-(2-fluoro-3,4-dihydroxy-5-methoxyphenyl)-1-(3-methyloxetan-3-yl)-1H-benzo[d]imidazol-5-yl)oxazolidin-2-one]
13 | 100 to 1000 | COc1cc(-c2nc3cc(N4CCC4=O)ccc3n2C2(C)COC2)c(F)c(O)c1O [Example 272, 1-(2-(2-fluoro-3,4-dihydroxy-5-methoxyphenyl)-1-(3-methyloxetan-3-yl)-1H-benzo[d]imidazol-5-yl)azetidin-2-one]
14 | 100 to 1000 | COc1cc(-c2nc3cc(N4CCN(C)CC4=O)ccc3n2C2(C)COC2)c(F)c(O)c1O [Example 273, 1-(2-(2-fluoro-3,4-dihydroxy-5-methoxyphenyl)-1-(3-methyloxetan-3-yl)-1H-benzo[d]imidazol-5-yl)-4-methylpiperazin-2-one]
15 | > 100000 | COc1cc(-c2nc3cc(N4CCN(C5CC5)CC4)ccc3[nH]2)cc(O)c1O [Example 274, 5-(5-(4-cyclopropylpiperazin-1-yl)-1H-benzo[d]imidazol-2-yl)-3-methoxybenzene-1,2-diol]
16 | 100 to 1000 | COc1cc(-c2nc3cc(N4CCOCC4=O)ccc3n2C2(C)COC2)c(F)c(O)c1O [Example 275, 4-(2-(2-fluoro-3,4-dihydroxy-5-methoxyphenyl)-1-(3-methyloxetan-3-yl)-1H-benzo[d]imidazol-5-yl)morpholin-3-one]
17 | ≤ 100 | COc1cc(-c2nc3ccc(N4CCOC4=O)cc3n2C2(C)COC2)c(F)c(O)c1O [Example 276, 3-(2-(2-fluoro-3,4-dihydroxy-5-methoxyphenyl)-1-(3-methyloxetan-3-yl)-1H-benzo[d]imidazol-6-yl)oxazolidin-2-one]

Row | IC50 [nM] | SMILES
18 | 1000 to 10000 | COc1cc(-c2nc3ccc(N4CCOCC4=O)cc3n2C2(C)COC2)c(F)c(O)c1O [Example 277, 4-(2-(2-fluoro-3,4-dihydroxy-5-methoxyphenyl)-1-(3-methyloxetan-3-yl)-1H-benzo[d]imidazol-6-yl)morpholin-3-one]
19 | ≤ 100 | COc1cc(-c2nc3cc(N4CCN(C)C(=O)C4)ccc3n2C2(C)COC2)c(F)c(O)c1O [Example 278, 4-(2-(2-fluoro-3,4-dihydroxy-5-methoxyphenyl)-1-(3-methyloxetan-3-yl)-1H-benzo[d]imidazol-5-yl)-1-methylpiperazin-2-one]
20 | 100 to 1000 | COc1cc(-c2nc3ccc(C(O)C(F)(F)F)cc3n2C2(C)COC2)c(F)c(O)c1O (stereo not drawn) [Example 280, 3-fluoro-6-methoxy-4-(1-(3-methyloxetan-3-yl)-6-(2,2,2-trifluoro-1-hydroxyethyl)-1H-benzo[d]imidazol-2-yl)benzene-1,2-diol]
21 | 100 to 1000 | COc1cc(-c2nc3ccc(CO)cc3n2C2(C)COC2)c(F)c(O)c1O [Example 281, 3-fluoro-4-(6-(hydroxymethyl)-1-(3-methyloxetan-3-yl)-1H-benzo[d]imidazol-2-yl)-6-methoxybenzene-1,2-diol]
22 | 1000 to 10000 | COc1cc(-c2nc3ccc(N4CCC4)cc3n2C2COC2)c(C)c(O)c1O [Example 283, 4-(6-(azetidin-1-yl)-1-(oxetan-3-yl)-1H-benzo[d]imidazol-2-yl)-6-methoxy-3-methylbenzene-1,2-diol]
23 | 1000 to 10000 | COc1cc(-c2nc3cc(N4CCC4)ccc3n2C2COC2)cc(O)c1O [Example 284, 5-(5-(azetidin-1-yl)-1-(oxetan-3-yl)-1H-benzo[d]imidazol-2-yl)-3-methoxybenzene-1,2-diol]
24 | 1000 to 10000 | COc1cc(-c2nc3ccc(N4CCC4)cc3n2C2COC2)cc(O)c1O [Example 285, 5-(6-(azetidin-1-yl)-1-(oxetan-3-yl)-1H-benzo[d]imidazol-2-yl)-3-methoxybenzene-1,2-diol]
25 | 1000 to 10000 | COc1cc(-c2nc3ccc(N4CCOCC4)cc3n2C2CCOC2)c(C)c(O)c1O (stereo not drawn) [Example 286, 6-methoxy-3-methyl-4-(6-morpholino-1-(tetrahydrofuran-3-yl)-1H-benzo[d]imidazol-2-yl)benzene-1,2-diol]
26 | > 100000 | COc1cc(-c2nc3nc(N4CCOCC4)ccc3n2C2CCOC2)cc(O)c1O (stereo not drawn) [Example 287, 3-methoxy-5-(5-morpholino-1-(tetrahydrofuran-3-yl)-1H-imidazo[4,5-b]pyridin-2-yl)benzene-1,2-diol]
27 | 1000 to 10000 | COc1cc(-c2nc3ccc(N4CCC4)cc3n2C2COC2)c(F)c(O)c1O [Example 288, 4-(6-(azetidin-1-yl)-1-(oxetan-3-yl)-1H-benzo[d]imidazol-2-yl)-3-fluoro-6-methoxybenzene-1,2-diol]
28 | 1000 to 10000 | COc1cc(-c2nc3cc(-c4ccccn4)ccc3[nH]2)c(C)c(O)c1O [Example 289, 6-methoxy-3-methyl-4-[5-(pyridin-2-yl)-1H-1,3-benzodiazol-2-yl]benzene-1,2-diol]
29 | 10000 to 100000 | Cc1c(-c2nc3ccccc3n2C2CCC2)cc(OC(C)C)c(O)c1O [Example 290, 4-(1-cyclobutyl-1H-1,3-benzodiazol-2-yl)-3-methyl-6-(propan-2-yloxy)benzene-1,2-diol]
30 | 100 to 1000 | COc1cc(-c2nc3ccccc3n2C23CC(C2)C3)c(C)c(O)c1O [Example 291, 4-(1-(bicyclo[1.1.1]pentan-1-yl)-1H-benzo[d]imidazol-2-yl)-6-methoxy-3-methylbenzene-1,2-diol]
31 | 10000 to 100000 | COc1cc(-c2nc3nc(N4CCC4)ccc3n2C2CCOC2)cc(O)c1O (stereo not drawn) [Example 292, 5-(5-(azetidin-1-yl)-1-(tetrahydrofuran-3-yl)-1H-imidazo[4,5-b]pyridin-2-yl)-3-methoxybenzene-1,2-diol]
32 | > 100000 | COc1cc(-c2nc3cc(N4CCC4)cc(C)c3[nH]2)cc(O)c1O [Example 293, 5-(5-(azetidin-1-yl)-7-methyl-1H-benzo[d]imidazol-2-yl)-3-methoxybenzene-1,2-diol]
33 | 1000 to 10000 | COc1cc(-c2nc3cc(N4CC(O)C4)ccc3n2C2COC2)c(F)c(O)c1O [Example 294, 3-fluoro-4-(5-(3-hydroxyazetidin-1-yl)-1-(oxetan-3-yl)-1H-benzo[d]imidazol-2-yl)-6-methoxybenzene-1,2-diol]
